Laboratory results as given in publication PMC5908160, “Inhibition of sperm motility in male macaques with EP055, a potential non-hormonal male contraceptive” (PLoS ONE, 2018).

Assay: Blood constituents and health monitoring in rhesus males after EP055 infusion
Assay type: in vivo, Macaca mulatta
Set-up: Hematocrit: unit not given here
Description: The physical and behavioral condition of animals are monitored daily at ONPRC. Additional monitoring by Division of Comparative Medicine and/or clinical veterinary staff was provided immediately, at 1 hr, 2 hr and 6 hr post-administration of the contraceptive compound, and daily for up to 30 days after the final drug injection. Criteria used to assess animal health and welfare include: stool and urine quality and quantity, appetite and attitude (bright and alert, quiet, lethargic), pain (not eating, not moving, hunched over, lethargy/disinterest), vomiting, diarrhea, nausea, dehydration (unkempt coat, lack of urine production), and signs of wounds of injury. In addition, the ONPRC Standardized Pain Scoring system is used post-surgically to monitor an animal’s progress and improvement over time. Major criteria include animal appearance, posture, activity (including stool and urine production), vocalization and atypical behaviors.
Prior to infusion of EP055, each male was sedated with ketamine by the surgical staff at ONPRC and transported to the operating room. After positioning in dorsal recumbency, the male was intubated and placed under inhalant (isoflurane) anesthesia. Bilateral intravenous catheters were placed in cephalic veins, one for infusion and one for back-up. A percutaneous arterial line was placed in the right femoral artery for direct blood pressure measurement. Invasive blood pressure, heart rate, SpO2, and respirations were monitored by the surgical staff throughout the procedure. Initially, the low doses of EP055 in 5% DMSO-PBS 7.6 was infused by i.v. at 75-80 mg/kg, using a Medfusion 3500 pump (Smiths Medical, St. Paul, MN), and was started at a low flow rate ([…]). In 3 of 4 males, a 5-10% increase in blood pressure and heart rate were noted within the first 2-3 minutes of infusion of EP055. In these cases, the infusion was temporarily suspended until these parameters subsequently declined to normal. The infusion rate was then doubled to 1.2 ml/kg/min after 5-10 minutes and the final volume of EP055 infusate was administered. Blood pressure and heart rate remained normal throughout the rest of the infusion interval. The total volume of EP055 infusate ranged from 72 ml – 136 ml, depending upon the weight of the animal, and the duration of infusion was 10-13 minutes. Following completion of the infusion, all animals recovered normally. Animals were monitored by clinical veterinary staff immediately, at 1 hr, 2 hr and 6-8 hr post-infusion, and daily for up to 30 days after the final infusion of EP055. […] Two weeks after the infusion of the low dose and collection of the next set of baseline semen samples, males were infused with the high dose of EP055 (125-130 mg/kg) as described above, and monitored similarly.
Blood was collected from the brachial vein at the time of each semen collection, and used to determine complete blood counts and serum biochemistry tests (including electrolytes, glucose, lipids, proteins, enzymes and metabolic by-products) as performed in the Clinical Pathology Laboratory in the Division of Comparative Medicine at ONPRC.

[1] = post high dose 125–130 mg/kg, 6-8 hrs
[2] = post high dose 125–130 mg/kg, 28-30 hrs
[3] = post high dose 125–130 mg/kg, 78 hr
[4] = post low dose 75–80 mg/kg, 6-8 hrs

## COC(=O)NNc1nc(Nc2ccc(NC(C)=O)c(O)c2)nc(SCC(=O)O)n1 [EP055]
3 of 4 males, first 2-3 minutes of low dose infusion (75-80 mg/kg)
  increase in blood pressure and heart rate: 5-10%
After low or high dose
  blood constituents versus baseline levels: no clinically significant difference
During and after drug administration
  side effects, monitoring of blood and organ function: no indications of any side effects or health warning signs
During treatment
  ALT (alanine aminotransferase) and glucose levels: rose during treatment
High dose 125-130 mg/kg
  adverse effects: no adverse effects were observed
High dose, 6 hrs
  neutrophil numbers versus reference range (2.4–9.6 x 10^3/mm^3): slightly above the high end of the reference range
In vivo
  long-term effects on animals: no long- term effects
Low dose 75-80 mg/kg, monitored up to 30 days
  adverse effects: No adverse effects were observed
[1]
  ALT: 49.7 ± 3.6 U/l
  AST: 68.3 ± 6.8 U/l
  Albumin: 4.7 ± 0.1 g/dL
  Alkaline Phosphatase: 94.0 ± 4.8 U/l
  BUN: 18.8 ± 2.3 mg/dL
  Basophils: 0.5 ± 0.1%
  CREAT: 1.0 ± 0.1 mg/dL
  Chloride: 108.7 ± 0.3 mEq/l
  Cholesterol: 146.3 ± 18.1 mg/dL
  Eosinophils: 0.9 ± 0.1%
  Erythrocytes: 6.1 ± 0.2 x 10^6/mm^3
  GGT: 71.0 ± 1.0 U/l
  GLUC: 101.3 ± 10.2 mg/dL
  Hematocrit: 45.2 ± 1.0
  Hemoglobin: 14.7 ± 0.4 g/dL
  Leukocytes: 12.3 ± 1.8 x 10^3/mm^3
  Lymphocytes: 21.6 ± 9.9%
  MCH: 24.2 ± 0.4 pg/cell
  MCHC: 32.5 ± 0.1 g/dL
  MCV: 74.5 ± 1.1 fl/cell
  Magnesium: 2.2 ± 0.1 mg/dL
  Monocytes: 5.2 ± 0.4%
  Neutrophils: 10.3 ± 1.4 x 10^3/mm^3
  Phosphorus: 5.2 ± 0.4 mg/dL
  Platelets: 298.3 ± 39.0 x 10^6
  Potassium: 4.0 ± 0.1 mEq/l
  Sodium: 147.7 ± 0.6 mEq/l
  Total Bilirubin: 0.2 ± 0.1 mg/dL
  Total Protein: 7.6 ± 0.2 g/dL
  Triglycerides: 84.3 ± 19.8 mg/dL
[2]
  ALT: 74.0 ± 10.8 U/l
  AST: 83.3 ± 14.3 U/l
  Albumin: 4.7 ± 0.1 g/dL
  Alkaline Phosphatase: 95.7 ± 3.6 U/l
  BUN: 15.3 ± 2.4 mg/dL
  Basophils: 0.5 ± 0.1%
  CREAT: 1.0 ± 0.0 mg/dL
  Chloride: 108.7 ± 0.6 mEq/l
  Cholesterol: 147.3 ± 23.4 mg/dL
  Eosinophils: 1.4 ± 0.1%
  Erythrocytes: 6.1 ± 0.2 x 10^6/mm^3
  GGT: 71.3 ± 3.4 U/l
  GLUC: 92.0 ± 9.7 mg/dL
  Hematocrit: 45.9 ± 0.9
  Hemoglobin: 15.0 ± 0.4 g/dL
  Leukocytes: 7.7 ± 1.4 x 10^3/mm^3
  Lymphocytes: 32.4 ± 4.3%
  MCH: 24.4 ± 0.3 pg/cell
  MCHC: 32.7 ± 0.2 g/dL
  MCV: 74.8 ± 1.0 fl/cell
  Magnesium: 1.9 ± 0.0 mg/dL
  Monocytes: 5.5 ± 0.6%
  Neutrophils: 5.1 ±0.8 x 10^3/mm^3
  Phosphorus: 3.2 ± 0.6 mg/dL
  Platelets: 301.7 ± 36.5 x 10^6
  Potassium: 4.0 ± 0.1 mEq/l
  Sodium: 149.0 ± 0.0 mEq/l
  Total Bilirubin: 0.2 ± 0.1 mg/dL
  Total Protein: 7.8 ± 0.2 g/dL
  Triglycerides: 59.3 ± 18.5 mg/dL
[3]
  ALT: 53.0 ± 7.3 U/l
  AST: 30.0 ± 3.1 U/l
  Albumin: 4.8 ± 0.1 g/dL
  Alkaline Phosphatase: 101.5 ± 8.7 U/l
  BUN: 18.3 ± 2.2 mg/dL
  Basophils: 0.5 ± 2.3%
  CREAT: 1.0 ± 0.0 mg/dL
  Chloride: 108.5 ± 0.9 mEq/l
  Cholesterol: 152.0 ± 19.4 mg/dL
  Eosinophils: 1.4 ± 4.5%
  Erythrocytes: 5.8 ± 4.5 x 10^6/mm^3
  GGT: 69.3 ± 3.8 U/l
  GLUC: 85.0 ± 8.7 mg/dL
  Hematocrit: 43.3 ± 4.5
  Hemoglobin: 14.1 ± 2.3 g/dL
  Leukocytes: 9.7 ± 2.3 x 10^3/mm^3
  Lymphocytes: 34.6 ± 4.5%
  MCH: 24.3 ± 4.5 pg/cell
  MCV: 74.9 ± 2.3 fl/cell
  Magnesium: 1.9 ± 0.1 mg/dL
  Monocytes: 5.6 ± 2.3%
  Neutrophils: 5.4 ± 1.1 x 10^3/mm^3
  Phosphorus: 4.2 ± 0.8 mg/dL
  Platelets: 292.8 ± 48.1 x 10^6
  Potassium: 4.4 ± 0.2 mEq/l
  Sodium: 149.5 ± 1.2 mEq/l
  Total Bilirubin: 0.1 ± 0.0 mg/dL
  Total Protein: 7.8 ± 0.1 g/dL
  Triglycerides: 68.0 ± 10.6 mg/dL
[4]
  ALT: 44.8 ± 2.0- U/l
  AST: 49.8 ± 3.1 U/l
  Albumin: 4.7 ± 0.0 g/dL
  Alkaline Phosphatase: 129.8 ± 19.2 U/l
  BUN: 17.2 ± 1.9 mg/dL
  Basophils: 0.6 ± 0.1%
  CREAT: 1.0 ± 0.0 mg/dL
  Chloride: 109.3 ± 1.5 mEq/l
  Cholesterol: 154.5 ± 19.0 mg/dL
  Eosinophils: 1.2 ± 0.3%
  Erythrocytes: 5.9 ± 0.2 x 10^6/mm^3
